Results published in publication PMC10094418, “Butein Inhibits Cell Growth by Blocking the IL-6/IL-6Rα Interaction in Human Ovarian Cancer and by Regulation of the IL-6/STAT3/FoxO3a Pathway” (International Journal of Molecular Sciences, 2023).

What was measured:
IL-6 = target: T1, IL-6 (Homo sapiens, UniProt P05231); experiment: Surface plasmon resonance, immobilized IL-6; format: binding; conditions: SPR, CM5 chip, steady-state KD
T1 construct: purchased PeproTech
Method: (§1) The surface plasmon resonance (SPR) assay was measured using the BIAcore T200 model (GE Healthcare, Chicago, IL, USA) with HBS-EP buffer (1×HBS-EP, GE Healthcare, Chicago, IL, USA) containing 5% dimethyl sulfoxide (DMSO; Sigma-Aldrich, St. Louis, MO, USA). The pH scouting for IL-6 (PeproTech, Rocky Hill, NJ, USA), IL-6Rα (PeproTech, Rocky Hill, NJ, USA), and gp130 (Sino Biological, Beijing, China, or ANRT, Daejeon, Korea) immobilization was performed in 10 mM acetate buffer at pH 4.5. IL-6, IL-6Rα, and gp130 were immobilized on a CM5 chip at 750, 1200, and 2000 response units (RU). Butein was injected into the IL-6, IL-6Rα and gp130-immobilized flow cell at concentrations of 10, 20, 30, 40, 50, 60, 70, 80, 90, and 100 μM with a 25 μL/min flow rate for 150 s and allowed to dissociate for 300 s. Steady-state KD was determined via the T-200 BIAevaluation software (GE Healthcare, Chicago, IL, USA).

SKOV3 cells [1] = experiment: Matrigel invasion assay, SKOV3; format: cell-based, human; conditions: 48 h
Method: Matrigel invasion assays were performed using a BioCoat Matrigel Invasion Chamber (BD Bioscience, Bedford, MA, USA). A2780 and SKOV3 cells (50,000 cells) were placed inside the chamber in serum-free medium containing 500 μL of drugs, and 700 μL of medium containing serum were placed outside the chamber. After incubation for 48 h, the infiltrating cells were stained using the Differential Quick Stain Kit (Cat.no. 26096-50, Electron Microscopy Sciences, Hatfield, PA, USA). Cells were imaged with a Slide Scanner (Aperio CS2, Leica Microsystems, Wetzlar, Germany) and the number of invading cells was quantified using Image J.

[2] = system: IL-6 signaling in HEK-Blue™ IL-6 cells; experiment: IL-6 inhibitory bioassay with HEK-Blue IL-6 cells (SEAP activity); format: cell-based, human; conditions: 10 ng/mL IL-6, 24 h
Method: HEK-Blue™ IL-6 cells were obtained from InvivoGen (San Diego, CA, USA). In a 96-well plate, 20 μL butein at various concentrations (0, 3.125, 6.25, 12.5, 25, and 50 μM) were added to the cell suspension (50,000 cells/200 μL). Following this, the recombinant human IL-6 (BioLegend, San Diego, CA, USA) was administered at 10 ng/mL. After 24 h, 20 μL of the IL-6-treated cell suspension was added to 180 μL of QUANTI-Blue™ Solution (JnvivoGen, San Diego, CA, USA) in a new 96-well plate. After 2 h of incubation at 37 °C, the spectrophotometric absorbance between 620 and 655 nm was recorded.

SKOV3 cells [3] = experiment: Annexin V apoptosis assay, SKOV3; format: cell-based, human; conditions: dose-dependent, p < 0.005
Method: A2780 and SKOV3 cell lines were treated with control (siltuximab 10 μM) and butein (5, 10, and 25 μM). After 6 h, the cells were fixed with 70% ethanol for cell cycle analysis and stained with propidium iodide (PI). Cell death was analyzed using the FITC Annexin V Apoptosis Detection kit with 7-AAD (Cat.no. 640922, BioLegend, San Diego, CA, USA). Cells were sorted using a FACS Canto II (BD Biosciences, Franklin Lakes, NJ, USA) and cell cycle and apoptosis were analyzed using BD FACS Diva software version 6. 2. Analysis (BD Biosciences, Franklin Lakes, NJ, USA) was performed in triplicate.

IL-6Rα = target: T2, IL-6Rα (Homo sapiens, UniProt P08887); experiment: Surface plasmon resonance, immobilized IL-6Rα; format: binding; conditions: SPR, CM5 chip, steady-state KD
T2 construct: purchased PeproTech
T2 sequence (P08887 20-468): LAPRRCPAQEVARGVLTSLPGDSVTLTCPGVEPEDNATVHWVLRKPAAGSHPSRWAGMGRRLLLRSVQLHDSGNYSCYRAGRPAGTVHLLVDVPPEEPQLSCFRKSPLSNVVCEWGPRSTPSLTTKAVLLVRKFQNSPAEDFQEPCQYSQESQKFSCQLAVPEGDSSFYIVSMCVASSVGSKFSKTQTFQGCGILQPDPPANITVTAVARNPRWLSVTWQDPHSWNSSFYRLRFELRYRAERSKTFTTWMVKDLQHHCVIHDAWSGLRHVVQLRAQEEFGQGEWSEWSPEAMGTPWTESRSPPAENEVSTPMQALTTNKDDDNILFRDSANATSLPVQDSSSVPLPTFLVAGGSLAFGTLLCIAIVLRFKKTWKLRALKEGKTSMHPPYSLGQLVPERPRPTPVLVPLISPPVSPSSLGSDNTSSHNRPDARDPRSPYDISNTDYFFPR
Method: as §1

IL-6/IL-6Rα interaction = target: T3, IL-6/IL-6Rα interaction (Homo sapiens, UniProt P05231); experiment: ELISA of the IL-6/IL-6Rα interaction; format: binding; conditions: at 20 μM
T3 construct: purchased BioLegend (IL-6); Acro biosystems (IL-6Ra) 570806 (IL-6); ILR-H5259 (IL-6Ra)
Method: An amount of 0.5 μg/mL rhIL-6 protein (Cat.no.570806, BioLegend) was coated onto 96-well ELISA plates at 4 °C overnight, and then the plates were washed with PBST (1 × PBS containing 0.05% Tween-20), followed by the addition of PBSA (1 × PBS containing 1% bovine serum albumin (BSA)) (Bovogen, East Keilor, Australia) for 1 h at room temperature. After blocking, the FDA-approved compounds (20 uM) (Cat.no. L-1300, Selleckchem, Houston, TX, USA) were incubated for 2 h at room temperature. After washing three times with PBST, 0.2 μg/mL recombinant IL-6Ra protein (Cat.no.ILR-H5259, Acro biosystems, Newark, DE, USA) was added to the plates, which were incubated for 1 h. After washing three times with PBST, HRP-conjugated goat anti-human IgG Ab (Cat.no. 10-035-098, Jackson Immno, Hatfield, West Grove, PA, USA) was added to the plates and incubated for 1 h. After washing three times with PBST, TMB solution (Cat.no.11684302001, Roche, Mannheim, Germany) was added to the plates and incubated for 15 min. Then, stop solution (2N HCl) was added to the plates. The absorbance was measured at 450 nm using the Epoch microplate spectrophotometer (BioTek instruments, Winooski, VT, USA).

T3 sequence (P05231 30-212): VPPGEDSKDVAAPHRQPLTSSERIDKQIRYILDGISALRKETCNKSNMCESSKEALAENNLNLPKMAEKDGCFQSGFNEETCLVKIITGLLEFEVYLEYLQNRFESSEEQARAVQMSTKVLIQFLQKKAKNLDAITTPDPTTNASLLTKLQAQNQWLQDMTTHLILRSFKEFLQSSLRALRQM
T1 sequence (P05231 30-212): as above

O=C(/C=C/c1ccc(O)c(O)c1)c1ccc(O)cc1O [butein]
Kd (IL-6): 91.4 µM
Cell infiltration (invasion), SKOV3 (SKOV3 cells [1]): similarly affected
Inhibition of SEAP signal of HEK-Blue IL-6 ([2]; 0-50 μM): maximum inhibition
LogIC50, HEK-Blue IL-6 SEAP activity [2]: 1.049±0.524 μM
IC50 ([2]; Homo sapiens, HEK-Blue IL-6): 12.9 ± 0.15 µM
Total apoptosis, SKOV3 (SKOV3 cells [3]): significantly increase
Kd (IL-6Rα): 435 µM
Reduction of the interaction between IL-6 and IL-6Rα (IL-6/IL-6Rα interaction): 21.7%
